The supplement of paper PMC10307832

Columns and labels:
Assay in all cases: relative viability (nuclei count vs DMSO), 5 days (fraction); higher = more cells survive
Ponatinib + Phenformin = compound: Cc1ccc(C(=O)Nc2ccc(CN3CCN(C)CC3)c(C(F)(F)F)c2)cc1C#Cc1cnc2cccnn12 [Ponatinib] + N=C(N)NC(=N)NCCc1ccccc1 [Phenformin] (partner 250 µM)
In short: (§1)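 Lung cancer cell lines, seeded in 1536-well plates, were treated the following day by pin tool with a single drug or with five library-drug doses (not always all listed) in √10 steps on top of a fixed anchor-drug dose. Cells were fixed and nuclei stained in one step after 5 days, and nuclei were counted. Relative viability is the nuclei count for treated wells divided by that for vehicle wells, reported as medians of duplicate plates.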

Pazopanib + Trametinib = compound: Cc1ccc(Nc2nccc(N(C)c3ccc4c(C)n(C)nc4c3)n2)cc1S(N)(=O)=O [Pazopanib] + CC(=O)Nc1cccc(-n2c(=O)n(C3CC3)c(=O)c3c(Nc4ccc(I)cc4F)n(C)c(=O)c(C)c32)c1 [Trametinib] (partner 0.02 µM)
In short: as §1

Pazopanib + Pictilisib = compound: Cc1ccc(Nc2nccc(N(C)c3ccc4c(C)n(C)nc4c3)n2)cc1S(N)(=O)=O [Pazopanib] + CS(=O)(=O)N1CCN(Cc2cc3nc(-c4cccc5[nH]ncc45)nc(N4CCOCC4)c3s2)CC1 [Pictilisib] (partner 1 µM)
In short: as §1

Pazopanib + Vorinostat = compound: Cc1ccc(Nc2nccc(N(C)c3ccc4c(C)n(C)nc4c3)n2)cc1S(N)(=O)=O [Pazopanib] + O=C(CCCCCCC(=O)Nc1ccccc1)NO [Vorinostat] (partner 1 µM)
In short: as §1

Cell Line	relative viability (Ponatinib + Phenformin; first compound 0.002 µM)	relative viability (Ponatinib + Phenformin; first compound 0.006325 µM)	relative viability (Ponatinib + Phenformin; first compound 0.06325 µM)	relative viability (Ponatinib + Phenformin; first compound 0.2 µM)	relative viability (Pazopanib + Trametinib; first compound 0.01 µM)	relative viability (Pazopanib + Trametinib; first compound 0.03162 µM)	relative viability (Pazopanib + Trametinib; first compound 0.1 µM)	relative viability (Pazopanib + Trametinib; first compound 0.3162 µM)	relative viability (Pazopanib + Trametinib; first compound 1 µM)	relative viability (Pazopanib + Pictilisib; first compound 0.01 µM)	relative viability (Pazopanib + Pictilisib; first compound 0.03162 µM)	relative viability (Pazopanib + Pictilisib; first compound 0.1 µM)	relative viability (Pazopanib + Pictilisib; first compound 0.3162 µM)	relative viability (Pazopanib + Pictilisib; first compound 1 µM)	relative viability (Pazopanib + Vorinostat; first compound 0.01 µM)	relative viability (Pazopanib + Vorinostat; first compound 0.03162 µM)	relative viability (Pazopanib + Vorinostat; first compound 0.1 µM)	relative viability (Pazopanib + Vorinostat; first compound 0.3162 µM)	relative viability (Pazopanib + Vorinostat; first compound 1 µM)
LOU-NH91	0.683	0.73	0.766	0.676	0.721	0.769	0.848	0.795	0.822	0.501	0.534	0.502	0.568	0.543	0.873	0.964	0.917	1.02	0.942
LU99A	0.823	0.873	0.744	0.859	–	0.622	0.632	0.597	0.595	0.241	0.374	0.356	0.35	0.35	–	0.493	0.459	0.545	0.554
LXF-289	0.513	0.545	0.525	0.445	0.691	0.675	0.717	0.71	0.706	0.701	0.784	0.778	0.735	0.822	0.767	0.798	0.779	0.732	0.812
NCI-H23	0.759	0.756	0.815	0.593	0.342	0.438	0.364	0.515	0.55	0.415	0.534	0.483	0.498	0.711	0.431	0.641	0.628	0.661	0.782
NCI-H322M	0.746	0.734	0.799	0.728	0.513	0.471	0.482	0.452	0.489	0.498	0.564	0.582	0.571	0.54	0.916	0.989	0.765	0.948	0.995
NCI-H358	0.375	0.46	0.4	0.299	0.145	0.134	0.124	0.167	0.141	0.337	0.333	0.297	0.415	0.395	0.752	0.656	0.782	0.728	0.694
NCI-H441	0.818	0.866	0.941	0.697	0.5	0.445	0.474	0.563	0.734	0.449	0.52	0.573	0.603	0.39	0.736	1.06	0.865	0.838	0.645
NCI-H460	0.489	0.501	0.549	0.573	0.087	0.16	0.283	0.108	0.287	0.275	0.339	0.345	0.429	0.407	0.719	0.765	0.749	0.677	0.723
NCI-H520	0.392	0.552	0.291	0.18	0.606	0.78	0.644	0.751	0.6	–	0.302	0.335	0.278	0.254	0.678	0.717	0.742	0.581	0.549
NCI-H596	0.621	0.82	0.7	0.568	0.798	1.02	0.808	0.814	0.915	0.383	0.379	0.417	0.381	0.39	0.598	0.634	0.578	0.691	0.642
NCI-H647	0.413	0.626	0.699	0.42	0.377	0.48	0.487	0.609	0.439	0.319	0.532	–	0.542	0.508	0.443	0.59	0.706	0.394	0.421
NCI-H650	0.407	0.426	0.438	0.419	0.942	0.918	0.984	1.13	1.13	0.789	0.838	0.92	0.836	0.79	0.381	0.466	0.398	0.364	0.485
NCI-H661	0.277	0.258	0.278	0.264	0.518	0.589	0.621	0.614	0.534	0.353	0.417	0.366	0.376	0.446	0.773	0.808	0.875	0.759	0.802
NCI-H727	0.537	0.507	0.605	0.532	0.395	–	0.393	0.359	0.4	0.356	0.244	0.497	0.393	0.483	1.17	–	1.06	1.15	1.08
NCI-H838	0.567	0.715	0.527	0.442	0.465	0.558	0.483	0.599	0.594	0.382	0.476	0.497	0.564	0.589	0.72	0.734	0.816	0.706	0.794
NCI-H1355	0.44	0.467	0.491	0.452	0.363	0.409	0.397	0.446	0.534	–	0.412	0.421	0.508	0.638	0.488	0.632	0.696	0.643	0.651
NCI-H1395	0.417	0.432	0.386	0.377	0.833	1.14	1.05	1.01	0.952	0.534	0.746	0.685	0.661	0.674	0.586	0.768	0.673	0.734	1.07
